Laboratory results published in ChEMBL document CHEMBL1152026, “Phosphonamidates and phosphonamidate esters as HIV-1 protease inhibitors” (Bioorg Med Chem Lett, 1991).

Columns and labels:
[1] = The half-life period was determined; type: ADME
[2] = target: T1, Human immunodeficiency virus type 1 protease (Human immunodeficiency virus 1, UniProt Q72874); experiment: Compound was evaluated for its binding affinity against HIV-1 protease
[3] = target: T1, Human immunodeficiency virus type 1 protease; experiment: Compound was evaluated for its inhibitory activity against HIV-1 protease

Row | SMILES | half-life [1] | Ki [2] | IC50 [3]
1 | NC(=O)[C@@H]1CCCN1P(=O)(O)C(Cc1ccccc1)NC(=O)C(F)(F)F (stereo not given in full) | 5 h | 52 µM | 121 µM
2 | NC(=O)[C@H](Cc1ccccc1)NP(=O)(O)C(Cc1ccccc1)NC(=O)C(F)(F)F (stereo not given in full) | 30 h | 45 µM | 105 µM
3 | COP(=O)(C(Cc1ccccc1)NC(=O)C(F)(F)F)N1CCC[C@H]1C(N)=O (stereo not given in full) | – | 44 µM | 103 µM
4 | COP(=O)(N[C@@H](Cc1ccccc1)C(N)=O)C(Cc1ccccc1)NC(=O)C(F)(F)F (stereo not given in full) | – | 80 µM | 184 µM
